# Assay results: US7179887B2, “Guinea pig proteinase-activated receptor 4 and its activating peptide” (Ortho-McNeil Pharmaceutical, Inc., priority 2001, dated 2007)
# Residues, ends and D or L forms follow the SMILES beside them. No end group written: not given here.
# How the values were obtained:
# [1] = test system: human gel filtered platelets; details: for induction of human platelet aggregation / activation of human PAR-4 (in words): human platelets
# Description: (§1) Human platelet-rich plasma (PRP) concentrate (Biological Specialties, Inc., Colmar, Pa.) was gel-filtered (Sepharose 2B, Pharmacia, Inc.) in Tyrode's buffer (140 mM NaCl, 2.7 mM KCl, 12 mM NaHCO3, 0.76 mM Na2HPO4, 5.5 mM dextrose, 5.0 mM Hepes, and 2 mg/ml BSA, pH 7.4). Guinea pigs (400–800 g) were anesthetized and blood drawn via an intraarterial catheter. PRP was prepared by centrifugation at 200×g for 10 min. Guinea pig PRP was gel-filtered as above. Gel-filtered platelets were diluted with Tyrode's buffer (143,000 platelets/μl, per well) and 2 mM CaCl2 in a 96-well microtiter plate. Platelet aggregation was initiated by the addition of the guinea pig PAR-4 AP (SFPGQA-NH2, SEQ ID No.:7) peptide. The assay plate was gently mixed constantly. Aggregation was monitored at 0 and 5 min after agonist addition in a microplate reader (Molecular Devices) by optical density at 650 nm (ΔSOFT). Aggregation was calculated as the decrease in optical density between the two measurements. All samples were tested in duplicate wells on the same plate.
# [2] = test system: guinea pig gel filtered platelets
# Description: as §1
# [3] = test system: guinea pig gel filtered platelets; details: Nishikawa et al. (2000); cited from earlier work
# [4] = test system: human gel filtered platelets; details: background statement; cited from earlier work
compound,measurement,setting,value
GYPGQV-NH2 [human PAR-4 AP],induction of human platelet aggregation / activation of human PAR-4 (in words),[1],induced human platelet aggregation
"C[C@H](NC(=O)[C@H](CCC(N)=O)NC(=O)CNC(=O)[C@@H]1CCCN1C(=O)[C@H](Cc1ccccc1)NC(=O)[C@@H](N)CO)C(N)=O [guinea pig PAR-4 AP, SFPGQA-NH2] (H-SFPGQA-NH2; N-terminus assumed)",EC50,[2],174 ± 14.6 µM
same,EC50,[1],140 ± 2.5 µM
same,induction of human platelet aggregation / activation of human PAR-4 (in words),[1],cross-activates human PAR-4
GYPGKF-NH2 [murine PAR-4 AP],response of guinea pig platelets to activating peptide (literature),[3],do not respond
SFLLRN-NH2 [human PAR-1 AP],induction of guinea pig platelet aggregation / response of guinea pig PAR-4 (in words),[2]; isolated guinea pig platelets,induced guinea pig platelet aggregation
same,induction of human platelet aggregation / activation of human PAR-4 (in words),[1],induced human platelet aggregation
same,aggregation of human platelets by exogenous activating peptide (background),[4],aggregation of human platelets can be reproduced
